Where two headings read alike, the source gives them in different places.
What was measured:
HRV serotype 16 = test: Antirhinoviral HI-HeLa cell culture assay (XTT cell protection), HRV-16; format: cell-based, human rhinovirus; conditions: HRV serotype 16, HI-HeLa cells
Experimental: (§1) In the Cell Protection Assay, the ability of compounds to protect cells against HRV infection was measured by the XTT dye reduction method. This method is described in Weislow, O. S., Kiser, R., Fine, D. L., Bader, J., Shoemaker, R. H., Boyd, M. R., J. Natl. Cancer Inst. 1989, 81, 577-586, the disclosure of which is incorporated herein by reference.
(§2) Infected or mock-infected cells were resuspended at 8×10^5 cells per mL and incubated with appropriate concentrations of compounds of formula I. Two days later, XTT/PMS was added to test plates, and the amount of formazan produced was quantified spectrophotometrically at 450/650 nm. […] The therapeutic index (TI) was calculated by dividing the CC50 by the EC50.
(§3) All strains of human rhinovirus (HRV) for use in this assay were purchased from American Type Culture Collection (ATCC) except for HRV serotype-14, which was produced from the infectious cDNA clone constructed and supplied to Applicants by Dr. Robert Rueckert at the Institute for Molecular Virology, University of Wisconsin, Madison, Wis. HRV stocks were propagated, and viral assays were performed in HI-HeLa cells (ATCC). Cells were grown in Minimal Essential Medium, available from Life Technologies, with 10% fetal bovine serum.
(§4) The compounds were tested against control compounds WIN 51711, WIN 52084, and WIN 54954, all obtained from Sterling-Winthrop Pharmaceuticals, and control compound Pirodavir, obtained from Janssen Pharmaceuticals. Antiviral data obtained for the test compounds are shown in Table 2 where all data are for HRV serotype-14 unless otherwise noted in parentheses.

HRV serotype 1A = test: Antirhinoviral HI-HeLa cell culture assay (XTT cell protection), HRV-1A; format: cell-based, human rhinovirus; conditions: HI-HeLa cells
Experimental: as §1, §2, §3, §4

HRV serotype-14 = test: Antirhinoviral HI-HeLa cell culture assay (XTT cell protection), HRV-14; format: cell-based, human rhinovirus
Experimental: as §1, §2, §3, §4

HRV serotype 39 = test: Antirhinoviral HI-HeLa cell culture assay (XTT cell protection), HRV-39; format: cell-based, human rhinovirus; conditions: HRV serotype 39, HI-HeLa cells
Experimental: as §1, §2, §3, §4

HRV serotype 89 = test: Antirhinoviral HI-HeLa cell culture assay (XTT cell protection), HRV-89; format: cell-based, human rhinovirus; conditions: HRV serotype 89, HI-HeLa cells
Experimental: as §1, §2, §3, §4

HI-HeLa cells [1] = test: Cytotoxicity in mock-infected HI-HeLa cells (XTT, antirhinoviral assay); format: cell-based; conditions: mock-infected HI-HeLa cells, read-out: CC50
Experimental: as §1, §2
(§5) HRV stocks were propagated, and viral assays were performed in HI-HeLa cells (ATCC). Cells were grown in Minimal Essential Medium, available from Life Technologies, with 10% fetal bovine serum.

HRV serotype 2 = test: Antirhinoviral HI-HeLa cell culture assay (XTT cell protection), HRV-2; format: cell-based, human rhinovirus; conditions: HRV serotype 2, HI-HeLa cells
Experimental: as §1, §2, §3, §4

HRV serotype 10 = test: Antirhinoviral HI-HeLa cell culture assay (XTT cell protection), HRV-10; format: cell-based, human rhinovirus; conditions: HRV serotype 10, HI-HeLa cells
Experimental: as §1, §2, §3, §4

[2] = system: Coxsackie strain A-21 (CVA-21); test: Anticoxsackieviral HI-HeLa cell culture assay (XTT cell protection); format: cell-based; conditions: CVA-21, HI-HeLa cells, m.o.i. 0.05, one day
Experimental: (§6) The Coxsackie strain A-21 (CVA-21) was purchased from American Type Culture Collection (ATCC). Virus stocks were propagated, and antiviral assays were performed in HI-HeLa cells (ATCC). Cells were grown in Minimal Essential Medium with 10% fetal bovine serum.
The ability of compounds to protect cells against CVA-21 infection was measured by the XTT dye reduction method. This method is described in Weislow, O. S., Kiser, R., Fine, D. L., Bader, J., Shoemaker, R. H., Boyd, M. R., J. Natl. Cancer Inst. 1989, 81, 577-586, the disclosure of which is incorporated herein by reference. […] Infected or uninfected cells were resuspended at 4×10^4 cells per mL and incubated with appropriate concentrations of drug. One day later, XTT/PMS was added to test plates, and the amount of formazan produced was quantified spectrophotometrically at 450/650 nm. […] The therapeutic index (TI) was calculated by dividing the CC50 by the EC50.
The compounds were tested against control compound WIN 54954, obtained from Sterling-Winthrop Pharmaceuticals, and control compound Pirodavir, obtained from Janssen Pharmaceuticals.

[3] = Cytotoxicity in mock-infected HI-HeLa cells (XTT, antirhinoviral assay); format: cell-based; conditions: human; mock-infected HI-HeLa cells; line for HRV serotype-14
Experimental: as §1, §2, §5

[4] = Cytotoxicity in uninfected HI-HeLa cells (XTT, anticoxsackieviral assay); format: cell-based; conditions: human, one day
Experimental: as §6
(§7) The ability of compounds to protect cells against CVA-21 infection was measured by the XTT dye reduction method. This method is described in Weislow, O. S., Kiser, R., Fine, D. L., Bader, J., Shoemaker, R. H., Boyd, M. R., J. Natl. Cancer Inst. 1989, 81, 577-586, the disclosure of which is incorporated herein by reference. HI-HeLa cells were infected with CVA-21 at a multiplicity of infection (m.o.i.) of 0.05 (CVA-21) or mock-infected with medium only. Infected or uninfected cells were resuspended at 4×10^4 cells per mL and incubated with appropriate concentrations of drug. One day later, XTT/PMS was added to test plates, and the amount of formazan produced was quantified spectrophotometrically at 450/650 nm. […] The therapeutic index (TI) was calculated by dividing the CC50 by the EC50.

HI-HeLa cells [5] = test: as above; format: cell-based; conditions: one day
Experimental: as §6, §7

[6] = target: T1, Recombinant Rhinovirus 3C protease serotype 14 (Human rhinovirus 14, UniProt P03303); test: biochemical; conditions: RVP serotype-14, progress curves, enzyme start experiments
T1 construct: Recombinant Rhinovirus 3C proteases from serotypes 14, 16, and 2; made in house
T1 sequence (P03303 1538-1719): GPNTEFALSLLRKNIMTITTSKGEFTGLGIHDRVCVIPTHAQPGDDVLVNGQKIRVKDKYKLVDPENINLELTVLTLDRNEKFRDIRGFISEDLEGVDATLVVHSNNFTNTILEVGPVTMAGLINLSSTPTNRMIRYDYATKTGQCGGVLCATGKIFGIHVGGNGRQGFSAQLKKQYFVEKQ
Experimental: Stock solutions (50 mM, in DMSO) of various compounds were prepared; dilutions were in the same solvent. […] Assays contained 2% DMSO, 50 mM tris pH 7.6, 1 mM EDTA, a compound at the indicated concentrations, approximately 1 μM substrate, and 50-100 nM protease. […] The kobs/I values were obtained from reactions initiated by addition of enzyme rather than substrate. RVP activity is measured in the fluorescence resonance energy transfer assay. […] In the uncleavaed peptide, the EDANS fluorescence was quenched by the proximal DABCYL moiety. When the peptide was cleaved, the quenching was relieved, and activity was measured as an increase in fluorescence signal.
The data in the column designated kobs/I was measured from progress curves enzyme start experiments.

[7] = HRV serotype-14, HI-HeLa cells, m.o.i. 0.13, two days, XTT, read-out: EC50

CCOC(=O)/C=C/C(CCC(N)=O)NC(=O)C(CC(=O)C(NC(=O)OC1CCCC1)C(C)C)Cc1ccc(C)cc1 (stereo not drawn) [Compound 20]
EC50 (HRV serotype 16): 0.15 µM
EC50 (HRV serotype 1A): 0.53 µM
EC50 (HRV serotype-14; [7]): 0.042 µM
EC50 (HRV serotype 39): 1.2 µM
EC50 (HRV serotype 89): 0.47 µM
CC50 (HI-HeLa cells [1]; line for HRV serotype 1A): > 3 µM
CC50 (HI-HeLa cells [1]; line for HRV serotype 2): > 3 µM
CC50 (HI-HeLa cells [1]; line for HRV serotype 10): > 3 µM
CC50 (HI-HeLa cells [1]; line for HRV serotype 16): > 3 µM
CC50 (HI-HeLa cells [1]; line for HRV serotype 39): > 3 µM
CC50 (HI-HeLa cells [1]; line for HRV serotype 89): > 3 µM
CC50 (HI-HeLa cells [1]; line for HRV serotype-14): > 3 µM
EC50 (HRV serotype 2): 0.56 µM

CCOC(=O)/C=C/C(CCC(N)=O)NC(=O)C(CC(=O)C(CC(C)C)NC(=O)SC1CCCC1)Cc1ccc(C)cc1 [Compound 21, Ethyl-3-(CyPentylSCO-L-LeuΨ[COCH2]-L-(p-CH3)Phe-L-Gln)-E-Propenoate]
EC50 (HRV serotype 1A): 0.56 µM
EC50 (HRV serotype 10): 1.4 µM
CC50 (HI-HeLa cells [1]; line for HRV serotype 1A): > 10 µM
CC50 (HI-HeLa cells [1]; line for HRV serotype 2): > 10 µM
CC50 (HI-HeLa cells [1]; line for HRV serotype 10): > 10 µM
CC50 (HI-HeLa cells [1]; line for HRV serotype-14): > 10 µM
EC50 (HRV serotype 2): 1 µM

CCOC(=O)c1ccc(OCCC2CCN(c3ccc(C)nn3)CC2)cc1 [Pirodavir, reference compound]
EC50 ([2]; 24 h): > 100 µM
EC50 (HRV serotype-14; Human rhinovirus sp., 48 h, HRV serotype-14, HI-HeLa cells, m.o.i. 0.13, two days, XTT, read-out: EC50): 0.03 µM
CC50 at 2 days [3]: > 10 µM
CC50 at 1 day [4]: > 100 µM

Cc1cc(CCCCCOc2c(Cl)cc(C3=NCCO3)cc2Cl)on1 [WIN 54954, reference compound]
EC50 [2]: > 100 µM
EC50 (HRV serotype-14; [7]): 2.13 µM
CC50 (HI-HeLa cells [1]; line for HRV serotype-14): > 63 µM
CC50 (HI-HeLa cells [5]): > 100 µM

Ethyl-3-(CBZ-L-LeuΨ[COCH2]-D/L-Phe-L-Gln)-E-Propenoate [Compound 1 + 9 (˜1:1)]
EC50 (HRV serotype 16): 2.8 µM
EC50 (HRV serotype 10): 4.1 µM
EC50 (HRV serotype-14; [7]): 1.3 µM
EC50 (HRV serotype 89): 5.1 µM
EC50 (HRV serotype 2): 2 µM

CC(C)CC(NC(=O)SCc1ccccc1)C(=O)CC(Cc1ccccc1)C(=O)NC(C=CC(=O)N1CCc2ccccc21)CCC(N)=O [Compound 3, (2,3-Dihydroindole)-3-(BnSCO-L-LeuΨ[COCH2]-L-Phe-L-Gln)-E-Propenamide]
kinact/KI ([6]; read-out: kobs/I): 29200 M⁻¹ s⁻¹
EC50 (HRV serotype-14; Human rhinovirus sp., 48 h): 1.9 µM
CC50 at 2 days [3]: 50.1 µM

CCOC(=O)/C=C/C(CCC(N)=O)NC(=O)C(CC(=O)C(NC(=O)SC1CCCC1)C(C)C)Cc1ccccc1 [Compound 7, Ethyl-3-(CyPentylSCO-L-ValΨ[COCH2]-L-Phe-L-Gln)-E-Propenoate]
CC50 (HI-HeLa cells [1]; line for HRV serotype 2): > 10 µM
CC50 (HI-HeLa cells [1]; line for HRV serotype 10): > 10 µM
CC50 (HI-HeLa cells [1]; line for HRV serotype 39): > 10 µM
CC50 (HI-HeLa cells [1]; line for HRV serotype 89): > 10 µM
CC50 (HI-HeLa cells [5]): > 10 µM

CCOC(=O)/C=C/C(CCC(N)=O)NC(=O)C(CC(=O)C(CC(C)C)NC1CCCC1)Cc1ccc(F)cc1 (stereo not drawn) [Compound 19]
kobs/I [6]: 67,200 M^−1sec^−1
EC50 (HRV serotype 1A): 0.6 µM
EC50 (HRV serotype 10): 1.6 µM
EC50 (HRV serotype-14; [7]): 0.28 µM
CC50 (HI-HeLa cells [1]; line for HRV serotype 1A): > 3 µM
CC50 (HI-HeLa cells [1]; line for HRV serotype 2): > 3 µM
CC50 (HI-HeLa cells [1]; line for HRV serotype 10): > 3 µM
CC50 (HI-HeLa cells [1]; line for HRV serotype-14): > 3 µM
EC50 (HRV serotype 2): 0.71 µM

CCOC(=O)/C=C/[C@H](CCC(N)=O)NC(=O)[C@@H](CC(=O)[C@@H](NC(=O)OC1CCCC1)C(C)C)Cc1ccc(F)cc1 [Compound 25, Ethyl-3-(CyPentylOCO-L-ValΨ[COCH2]-L-(p-F)Phe-L-Gln)-E-Propenoate]
EC50 (HRV serotype 16): 0.71 µM
EC50 (HRV serotype 1A): 0.9 µM
EC50 (HRV serotype 10): 1.7 µM
EC50 (HRV serotype-14; [7]): 0.14 µM
EC50 (HRV serotype 39): 0.56 µM
EC50 (HRV serotype 89): 0.32 µM
CC50 (HI-HeLa cells [1]; line for HRV serotype 1A): > 3 µM
CC50 (HI-HeLa cells [1]; line for HRV serotype 2): > 3 µM
CC50 (HI-HeLa cells [1]; line for HRV serotype 10): > 3 µM
CC50 (HI-HeLa cells [1]; line for HRV serotype 16): > 3 µM
CC50 (HI-HeLa cells [1]; line for HRV serotype 39): > 3 µM
CC50 (HI-HeLa cells [1]; line for HRV serotype 89): > 3 µM
CC50 (HI-HeLa cells [1]; line for HRV serotype-14): > 3 µM

— US20040072907A1, “Antipicornaviral compounds, compositions containing them, and methods for their use” (priority 1997, published 2004)
